Test results taken from BindingDB's records for doi:10.1021/ml500507v (University of Cambridge, 2015).

Legend:
[1] = molecular target: T1, 5-hydroxytryptamine receptor 2C (Homo sapiens, UniProt P28335); assay: Agonist activity at human recombinant 5-HT2C receptor expressed in Swiss mouse 3T3 cell membranes after 30 to 40 mins by GTPgammaS recruitment assay
T1 sequence (P28335 whole entry): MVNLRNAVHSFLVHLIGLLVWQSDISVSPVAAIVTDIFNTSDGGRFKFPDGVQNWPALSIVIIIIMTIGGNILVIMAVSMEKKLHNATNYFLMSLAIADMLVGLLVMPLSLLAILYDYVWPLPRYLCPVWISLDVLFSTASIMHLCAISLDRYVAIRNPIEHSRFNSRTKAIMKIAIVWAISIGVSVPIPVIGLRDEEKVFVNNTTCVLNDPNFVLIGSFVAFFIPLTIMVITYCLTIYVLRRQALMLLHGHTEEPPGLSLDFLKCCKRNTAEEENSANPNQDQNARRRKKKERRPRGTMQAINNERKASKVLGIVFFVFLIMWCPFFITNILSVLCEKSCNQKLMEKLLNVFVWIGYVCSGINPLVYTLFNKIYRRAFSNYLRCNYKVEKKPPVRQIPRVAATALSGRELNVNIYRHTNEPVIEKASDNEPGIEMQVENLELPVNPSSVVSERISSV

[2] = molecular target: T1, 5-hydroxytryptamine receptor 2C; assay: Inhibition of Cy3B conjugated serotonin analogue binding to human recombinant 5-HT2C receptor expressed in Swiss mouse 3T3 cell membranes after 60 mins by fluorescence polarization assay

Row | SMILES | EC50 [1] [nM] | Ki [2] [nM]
1 | c1ccc(CNc2nc(Cc3ccccc3)cc3c2CCNCC3)cc1 | 158 | 22
2 | CC(C)CNc1nc(Cc2ccccc2)cc2c1CCNCC2 | 36 | 12
3 | CCCNc1nc(Cc2ccccc2)cc2c1CCNCC2 | – | 4
4 | CC(C)Nc1nc(Cc2ccccc2)cc2c1CCNCC2 | – | 13
5 | CN(C)c1nc(Cc2ccccc2)cc2c1CCNCC2 | – | 12
6 | c1ccc(Cc2cc3c(cn2)CCNCC3)cc1 | – | 35

The next compounds have a lower Ki [2] than those just listed; values first:

Row | EC50 [1] [nM] | Ki [2] [nM] | SMILES
7 | 11 | 3 | CCNc1nc(Cc2ccccc2)cc2c1CCNCC2
8 | 9 | 3 | CNc1nc(Cc2ccccc2)cc2c1CCNCC2
9 | – | 0.5 | c1ccc(Cc2cc3c(c(NCC4CC4)n2)CCNCC3)cc1
